Reference: patent publication US8691534B2, “Preparation of romidepsin” (Celgene Corporation, priority 2006, dated 2014)

Experiment: pH-dependent stability of romidepsin in solution during production, purification and storage
Format: physicochemical
Text: Based on this recognition, the present invention provides a system for reproducibly preparing romidepsin under conditions that reduce the levels of these contaminating side products. […] This improvement in the purification process of romidepsin allows for higher yields of romidepsin and/or higher purity romidepsin than that provided by known processes. Such an improvement is particularly useful for preparing pharmaceutical grade romidepsin for use in humans.
Romidepsin is a cyclic depsipeptide having a disulfide bond. […] Such adducts are typically insoluble and difficult to remove from purified romidepsin. In certain embodiments, such contaminating adducts prevent a preparation of romidepsin from meeting the desired specifications (e.g., solubility, degree of purity, optical rotation, etc.). In pharmaceutical compositions, these adducts decrease the purity of the active agent, romidepsin. Since romidepsin is being used as a pharmaceutical agent in humans, it is important that pure, stable, monomeric romidepsin be reproducibly obtained from a fermentation of Chromobacterium violaceum. The present invention stems from the recognition that alkaline conditions cause the formation of these undesired romidepsin adducts and provides a novel solution to this problem.

C/C=C1\NC(=O)[C@H]2CSSCC/C=C/[C@H](CC(=O)N[C@H](C(C)C)C(=O)N2)OC(=O)[C@H](C(C)C)NC1=O [Romidepsin, (1S,4S,10S,16E,21R)-7-[(2Z)-ethylidene]-4,21-diisopropyl-2-oxa-12,13-dithia-5,8,20,23-tetraazabicyclo[8.7.6]tricos-16-ene-3,6,9,19,22-pentanone]
reduction of the disulfide bond (basic conditions, e.g. greater than an apparent pH of ~7): facilitates the reduction of this disulfide bond
formation of dimerized, oligomerized, or polymerized romidepsin (producing, purifying and/or storing at an apparent pH less than approximately 6.5, more preferably less than approximately 6.0): prevent the formation of dimerized, oligomerized, or polymerized romidepsin
